In brackets after ≈: the same amount, converted by molar mass. *1 amine or outer side, *2 acyl side, *3 side chain or, on linkers, in order; H or OH if unused. Where a SMILES comes first, the peptide text is derived from it. Bridges are numbered along the chain shown (N, C = ends). [ ]: non-standard residue; d: D form. The star is where a group is joined. ξ: configuration not given here. ξOrn(4,5-diOH) = O=C(C(CC(O)C(O)N[*:3])N[*:1])[*:2]; ξhTyr(βξ-OH,γξ-OH) = NC(C(=O)O)C(O)C(O)c1ccc(O)cc1; X2 = NC(=O)CC(O)C(N[*:1])C(=O)[*:2]; X3 = O=C(C1C(O)C(O)CN1[*:1])[*:2]; X1 = CCC(C)CC(C)CCCCCCCCC(=O)*; Hyp = O=C(O)[CH]1C[CH](O)CN1
Experiments:
Candida albicans = assay: minimum fungicidal concentration (MFC), microbroth dilution assay, Candida albicans; assay type: cell-based; conditions: 24 h
Method: (§1) The antifungal properties may be illustrated with the minimum fungicidal concentration (MFC) determinations against certain Candida organisms in a microbroth dilution assay carried out in Yeast Nitrogen Base (Difco) with 1 percent dextrose (YNBD). In carrying out the assay, Compound I was solubilized in 10 percent dimethyl sulfoxide (DMSO) and diluted to 2560 μg/ml. The compound was then diluted to 256 μg/ml in YNBD. 0.15 ml of the suspension was dispensed to the top row of a 96-well plate (each well containing 0.15 ml of YNDB) resulting in a drug concentration of 128 μg/ml. Two-fold dilutions were then made from the top row to obtain final drug concentrations ranging from 128 to 0.06 μg/ml.
(§2) The yeast cultures, maintained on Sabouraud dextrose agar were transferred to YM broth (Difco) and incubated overnight at 35° C. with shaking (250 rpm). After incubation, each culture was diluted in sterile water to yield a final concentration of 1-5×10^6 colony forming units (CFU)/ml.
96-well microplates were inoculated using a MIC-2000 (Dynatech) which delivers 1.5 μl per well yielding a final inoculum per well of 1.5-7.5×10^3 cells. The microplates were incubated at 35° C. for 24 hours. The minimum inhibitory concentrations (MICs) were recorded as the lowest concentrations of drug showing no visible growth.
After recording the MIC, the plates were shaken to resuspend the cells. Thereafter, 1.5 μl samples from the wells in the 96-well microplate were transferred to a single well tray containing Sabouraud dextrose agar. The inoculated trays were incubated 24 hours at 28° C. and then read. The MFC is defined as the lowest concentration of drug showing no growth or less than 4 colonies per spot. The results (three samples) are seen in the following table: ______________________________________ Minimum Fungicidal Concentration (μg/ml) Fungi Compound Compound Strain No. IA IB ______________________________________ Candida albicans MY 1055 2 1 MY 1028 2 0.5 MY 1750 4 1 Candida tropicalis MY 1012 1 0.12 Candida pseudotropicalis MY 1100 4 2 ______________________________________

Candida tropicalis = assay: minimum fungicidal concentration (MFC), microbroth dilution assay, Candida tropicalis; assay type: cell-based; conditions: 24 h, strain MY 1012, YNBD
Method: as §1, §2
(§3) 96-well microplates were inoculated using a MIC-2000 (Dynatech) which delivers 1.5 μl per well yielding a final inoculum per well of 1.5-7.5×10^3 cells. […] The minimum inhibitory concentrations (MICs) were recorded as the lowest concentrations of drug showing no visible growth.
(§4) After recording the MIC, the plates were shaken to resuspend the cells. […] The inoculated trays were incubated 24 hours at 28° C. and then read. […]

Candida pseudotropicalis = assay: minimum fungicidal concentration (MFC), microbroth dilution assay, Candida pseudotropicalis; assay type: cell-based; conditions: Kluyveromyces marxianus, 24 h; strain MY 1100; YNBD
Method: as §1, §2, §3, §4

Pneumocystis carinii = assay: effectiveness against Pneumocystis carinii pneumonia in immunosuppressed rats; assay type: in vivo, Sprague-Dawley rats; conditions: subcutaneously twice daily for four days; for Reduction of Cysts / Log Mean # Cysts (± SEGM): rat lung; for Log Mean # Cysts (± SEGM): * significant (t-test); for Survivors: rats
Method: Compound I is useful for inhibiting or alleviating Pneumocystis carinii infections. In a representative study, the effectiveness of Compound I in rats were determined. Sprague-Dawley rats (weighing approximatley 250 g) were immunosuppressed with dexasone in the drinking water ([…]) and maintained on a low protein diet for 5 weeks to induce the development of Pneumocystis pneumonia from a latent infection. Before drug treatment 2 rats were sacrificed to confirm the presence of Pneumocystis carinii pneumonia (PCP); both rats had infections. The remaining rats (weighing approximately 150 g) were distributed into groups of 6 and injected twice daily for four days subcutaneously with compound in 0.25 ml of vehicle (10% DMSO in water or water). The control group of 5 rats received vehicle alone. All animals continued to receive dexasone in the drinking water and low protein diet during the drug treatment period. At the completion of treatment all animals were sacrificed, the lungs were removed and processed, and the extent of disease determined by microscopic analysis of stained slides. […] All groups were compared using the student t-test and results marked (*) are significant.

`CCC(C)CC(C)CCCCCCCCC(=O)NC1CC(O)C(O)NC(=O)C2CC(O)CN2C(=O)C(C(O)CC(N)=O)NC(=O)C(C(O)C(O)c2ccc(O)cc2)NC(=O)C2CC(O)CN2C(=O)C(C(C)O)NC1=O` (stereo not drawn) [Compound IA] (X1-[ξOrn(4,5-diOH)]T[Hyp][ξhTyr(βξ-OH,γξ-OH)][X2][Hyp]; lactam 1-C; configuration not given here) gave an MFC (Candida albicans; strain MY 1028, YNBD) of 2 µg/mL (≈ 1.88 µM), an MFC (Candida albicans; strain MY 1055, YNBD) of 2 µg/mL (≈ 1.88 µM) and an MFC (Candida albicans; strain MY 1750, YNBD) of 4 µg/mL (≈ 3.76 µM). For the same compound, the MFC (Candida tropicalis) was 1 µg/mL (≈ 0.939 µM), the MFC (Candida pseudotropicalis) was 4 µg/mL (≈ 3.76 µM) and the “Reduction of Cysts” value (Pneumocystis carinii; 0.15 mg/kg) was 88.5%. The “Log Mean # Cysts (± SEGM)” value (Pneumocystis carinii; 0.15 mg/kg) was 6.32 ± .17, the Survivors (Pneumocystis carinii; 0.15 mg/kg) was 6/6 and the “Reduction of Cysts” value (Pneumocystis carinii; 0.30 mg/kg) was 94.6%. The “Log Mean # Cysts (± SEGM)” value (Pneumocystis carinii; 0.30 mg/kg) was 5.99 ± .18, the Survivors (Pneumocystis carinii; 0.30 mg/kg) was 5/6 and the “Reduction of Cysts” value (Pneumocystis carinii; 0.60 mg/kg) was 97.4%. For the same compound, the “Log Mean # Cysts (± SEGM)” value (Pneumocystis carinii; 0.60 mg/kg) was 5.68 ± .19, the Survivors (Pneumocystis carinii; 0.60 mg/kg) was 6/6 and the “Reduction of Cysts” value (Pneumocystis carinii; 1.20 mg/kg) was 97.9%. The “Log Mean # Cysts (± SEGM)” value (Pneumocystis carinii; 1.20 mg/kg) was 5.58 ± .11 and the Survivors (Pneumocystis carinii; 1.20 mg/kg) was 5/6.

Compound `CCC(C)CC(C)CCCCCCCCC(=O)NC1CC(O)C(O)NC(=O)C2C(O)C(O)CN2C(=O)C(C(O)CC(N)=O)NC(=O)C(C(O)C(O)c2ccc(O)cc2)NC(=O)C2CC(O)CN2C(=O)C(C(C)O)NC1=O` (stereo not drawn) [Compound IB] (X1-[ξOrn(4,5-diOH)]T[Hyp][ξhTyr(βξ-OH,γξ-OH)][X2][X3]; lactam 1-C; configuration not given here) has an MFC (Candida albicans; strain MY 1028, YNBD) of 0.5 µg/mL (≈ 0.462 µM), an MFC (Candida albicans; strain MY 1055, YNBD) of 1 µg/mL (≈ 0.925 µM) and an MFC (Candida albicans; strain MY 1750, YNBD) of 1 µg/mL (≈ 0.925 µM). For the same compound, the MFC (Candida tropicalis) was 0.12 µg/mL (≈ 0.111 µM), the MFC (Candida pseudotropicalis) was 2 µg/mL (≈ 1.85 µM) and the “Reduction of Cysts” value (Pneumocystis carinii; 0.03 mg/kg) was 95.0%. For the same compound, the “Log Mean # Cysts (± SEGM)” value (Pneumocystis carinii; 0.03 mg/kg) was 6.16 ± .14, the Survivors (Pneumocystis carinii; 0.03 mg/kg) was 6/6 and the “Reduction of Cysts” value (Pneumocystis carinii; 0.07 mg/kg) was 96.8%. The “Log Mean # Cysts (± SEGM)” value (Pneumocystis carinii; 0.07 mg/kg) was 5.97 ± .18, the Survivors (Pneumocystis carinii; 0.07 mg/kg) was 6/6 and the “Reduction of Cysts” value (Pneumocystis carinii; 0.15 mg/kg) was 98.7%. The “Log Mean # Cysts (± SEGM)” value (Pneumocystis carinii; 0.15 mg/kg) was 5.59 ± .11, the Survivors (Pneumocystis carinii; 0.15 mg/kg) was 6/6 and the “Reduction of Cysts” value (Pneumocystis carinii; 0.30 mg/kg) was 99.4%. For the same compound, the “Log Mean # Cysts (± SEGM)” value (Pneumocystis carinii; 0.30 mg/kg) was 5.22 ± .10, the Survivors (Pneumocystis carinii; 0.30 mg/kg) was 6/6 and the “Reduction of Cysts” value (Pneumocystis carinii; 0.60 mg/kg) was 99.1%. For the same compound, the “Log Mean # Cysts (± SEGM)” value (Pneumocystis carinii; 0.60 mg/kg) was 5.41 ± .17 and the Survivors (Pneumocystis carinii; 0.60 mg/kg) was 6/6.

Source: patent US5366880A, “Antibiotic agent” (Merck & Co., Inc., priority 1993, dated 1994)
